Test results as given in US12545643B2, “3,5-diaminobenzoic acid compound, and Pin1 inhibitor and therapeutic agent for inflammatory diseases using same” (Amenis Bioscience, Inc., priority 2020, dated 2026).

Tests used:
SARS-CoV-2 = SARS-CoV-2 proliferation suppression study (nucleocapsid Western blot in VeroE6/TMPRSS2 cells); assay type: cell-based; details: for inhibition at 20 µM: Severe acute respiratory syndrome coronavirus 2, 20 μM, MOI 10, lysate 8 hours after infection, read-out: Inhibition rate (SARS-CoV-2 nucleocapsid band area)
Pin1 [1] = target: T1, Pin1 (Homo sapiens, UniProt Q13526); test: Cell-based assay of Pin1 inhibition (AMPK phosphorylation level as index, Western blot); set-up: endogenous in cells; host or cells: 293T cells; key: +++: a higher level of AMPK phosphorylation is promoted, as compared with C1; ++: a similar level of AMPK phosphorylation is promoted, as compared with C1; +: a lower level of AMPK phosphorylation is promoted, as compared with C1; −: no or almost no promotion is found in AMPK phosphorylation; details: 293T cells, compound at 50 μM, 10 mM 2-DG, pAMPK level compared with known Pin1 inhibitor C1
T1 sequence (Q13526 whole entry): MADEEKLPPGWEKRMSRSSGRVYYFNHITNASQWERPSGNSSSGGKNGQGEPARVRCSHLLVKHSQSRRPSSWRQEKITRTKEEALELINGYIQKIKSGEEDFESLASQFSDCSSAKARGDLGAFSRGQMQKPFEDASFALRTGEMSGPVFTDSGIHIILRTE
Method: To evaluate the inhibitory activity of each compound synthesized in Example 1 against the function of Pin1, a cell-based assay was performed according to the method previously developed by the inventors (Yusuke Nakatsu et al., Journal of Biological Chemistry, 2015, Vol. 290, No. 40, pp. 24255-24266), in which the phosphorylation level of AMPK (AMP-activated protein kinase), a protein whose phosphorylation is suppressed by Pin1, was examined as an index.
Briefly, 293T cells were plated on a collagen-coated 24-well plate. Forty-eight hours later, each compound synthesized in the preceding example (at 50 μM) was added to the plate, and the plate was left to stand in an incubator for 30 minutes. Subsequently, 10 mM 2-DG was added to the plate, and one hour later, each sample was collected with a buffer containing mercaptoethanol and SDS.
SDS-PAGE and blotting were performed, and blocking was then performed with 3% BSA for 1 hour, according to conventional protocols. Subsequently, a pAMPK antibody (Cell Signaling; diluted 1:2000 in Can Get Signal Solution 1, Toyobo) as a primary antibody, and an HRP-linked anti rabbit IgG (GE Healthcare; diluted 1:4000 in Can Get Signal Solution 2, Toyobo) as a secondary antibody were allowed to react at ambient temperature for 1 hour prior to detection.
The inhibitory activity against the function of Pin1 was evaluated as indicated below by comparing the inhibition levels between each compound and a known Pin1 inhibitor, C1 ((R)-2-(5-(4-methoxyphenyl)-2-methylfuran-3-carboxamido)-3-(naphthalene-6-yl) propanoic acid):
(+++): a higher level of AMPK phosphorylation is promoted, as compared with C1;
(++): a similar level of AMPK phosphorylation is promoted, as compared with C1;
(+): a lower level of AMPK phosphorylation is promoted, as compared with C1;
(−): no or almost no promotion is found in AMPK phosphorylation.

[2] = tested on: non-alcoholic steatohepatitis (NASH) model mice; test: NASH treatment study in HFD-fed NASH model mice; assay type: in vivo; details: 5 mg/kg/day orally three times a week, 8 weeks
Method: Animal experiments were performed using non-alcoholic steatohepatitis (NASH) model mice to test the compounds according to the present invention for the therapeutic effect on NASH. NASH model mice (hereinafter referred to as “NASH mice”) were produced by feeding a high-fat and high-cholesterol diet containing palm oil (HFD) to individual 8-week-old male laboratory mice for 8 weeks. The mice were divided into groups during 8 weeks of the HFD-feeding period, and animal experiments were performed on a group of mice to which a compound according to the present invention (H-686) was administered orally at a dose of 5 mg/kg/day three times a week, and a group of mice to which nothing was administered. In addition, a normal diet was given to individual 8-week-old male laboratory mice for 8 weeks to prepare control mice. FIGS. 1 (A) and 1 (B) show the results of measurements of body weight and liver weight of these mice respectively. FIGS. 2 (A) and 2 (B) show the results of measurements of blood AST (GOT) concentration and blood ALT (GPT) concentration. respectively. Then FIGS. 3 (A) and 3 (B) show the results of measurements of mRNA expression levels of Colla1 (collagen, type I, alpha 1 chain) and Colla2 (collagen, type I, alpha 2 chain), respectively.

Pin1 [3] = target: T1, Pin1; test: Cell-free assay of peptidylprolyl isomerase activity (absorbance at 330 nm, substrate Suc-Ala-Glu-Pro-Phe-pNA); assay type: biochemical; details: compound 10 μM, Pin1 5 nM, substrate peptide 60 μM, 10° C.; read-out: Pin1 inhibition activity Cell-free assay (inhibition ratio)
Method: For some compounds synthesized in Example 1, the inhibitory activity against the function of Pin1 was measured by a cell-free assay based on the method by Janowski et al. (AnalyticalBiochemistry, 1997, Vol. 252, Issue 2, pp. 299-307) because there is an assay measuring peptidylprolylisomerase activity without cells (cell-free).
Briefly, an assay buffer (containing 35 mM HEPES, pH 7.8, 50 μM DTT and 0.0025% NP40) was equilibrated to 10° C. in a quartz cell with stirring function. To this solution was added the compound dissolved in DMSO (10 μM) and then UV spectrum of the resulting solution was immediately measured. Then Pin1 (final concentration of 5 nM) was added to the solution. The reaction was initiated by adding a substrate peptide (Suc-Ala-Glu-Pro-Phe-pNA) dissolved in 0.5 M LiCl solution in trifluoroethanol (final concentration of 60 μM). After reaction was initiated, the change of absorbance at 330 nm was measured for 5 minutes. The resultant reaction curve was fitted to a first order decay model to calculate the reaction rate. The catalytic reaction rate was calculated by subtracting the background rate from the reaction rate. The inhibition ratio (%) was calculated from the catalytic reaction rates in the presence and absence of the compound. The higher inhibition ratio means the higher inhibitory activity against Pin1 function.

NASH-induced mice = details: cited from earlier work

SMILES | inhibition at 20 µM (SARS-CoV-2) [%] | Pin1 inhibition activity Cell-based assay (Pin1 [1]) | inhibition at 10 µM (Pin1 [3]) [%] | other results
COC(=O)c1cc(NC(=O)c2cccnc2)cc(NC(=O)n2c3ccccc3c3ccccc32)c1 [Compound H-680] | 53 | − (Hydrolysis causes conversion to H-682) |  | 
COC(=O)c1cc(NC(=O)c2ccc3ccccc3n2)cc(NC(=O)n2c3ccccc3c3ccccc32)c1 [Compound H-684] | 66 | ++ (Hydrolysis causes conversion to H-688) |  | 
COC(=O)c1cc(NC(=O)c2cnc3ccccc3n2)cc(NC(=O)n2c3ccccc3c3ccccc32)c1 [Compound H-685] | 58 | + |  | 
COC(=O)c1cc(NC(=O)c2ccc3c(c2)OCCO3)cc(NC(=O)n2c3ccccc3c3ccccc32)c1 [Compound H-686] |  | ++ (Hydrolysis causes conversion to H-692) |  | body weight (weight gain) ([2]; FIG. 1 (A)): weight gain in the mice given H-686 was suppressed; liver weight (increase) ([2]; FIG. 1 (B)): the increase in liver weight was significantly suppressed; blood AST (GOT) concentration ([2]; FIG. 2 (A)): the AST value was decreased; blood ALT (GPT) concentration ([2]; FIG. 2 (B)): the ALT value was decreased; mRNA expression level of Colla1 (collagen, type I, alpha 1 chain) ([2]; FIG. 3 (A)): the expression level of Colla1 was suppressed; mRNA expression level of Colla2 (collagen, type I, alpha 2 chain) ([2]; FIG. 3 (B)): the suppression of the expression level was observed; fat accumulation in liver tissue (microscopic observation) ([2]; FIG. 4): suppressed fat accumulation
O=C(O)c1cc(NC(=O)c2ccc3ccccc3n2)cc(NC(=O)n2c3ccccc3c3ccccc32)c1 [Compound H-688] | 98 | ++ |  | suppressing effect against SARS-CoV-2 proliferation (SARS-CoV-2; 5 μM or 10 μM, MOI 10, 8 hours after infection, FIG. 5): observed to have a suppressing effect against SARS-CoV-2 proliferation
COC(=O)c1cc(NC(=O)COc2ccccn2)cc(NC(=O)n2c3ccccc3c3ccccc32)c1 [Compound H-762] | 83 | − (Hydrolysis causes conversion to H-763) |  | 
O=C(COc1ccccn1)Nc1cc(NC(=O)n2c3ccccc3c3ccccc32)cc(C(=O)O)c1 [Compound H-763] | 97 | − | 24.6 | 
O=C(CNC(=O)c1ccccc1)Nc1cc(NC(=O)n2c3ccccc3c3ccccc32)cc(C(=O)O)c1 [Compound H-767] |  | − | 74.8 | 
O=C(CNC(=O)OCc1ccccc1)Nc1cc(NC(=O)n2c3ccccc3c3ccccc32)cc(C(=O)O)c1 [Compound H-769] |  | − | 15.9 | 
O=C(CN(c1ccccc1)c1ccccc1)Nc1cc(NC(=O)c2ccc3ccccc3c2)cc(C(=O)O)c1 [Compound H-819] | 95 |  | 62 | 
O=C(CN(c1ccccc1)c1ccccc1)Nc1cc(NC(=O)c2ccc3ccccc3n2)cc(C(=O)O)c1 [Compound H-821] | 95 |  | 94.4 | 
O=C1C=CC(=O)c2c(O)cccc21 [Juglone] |  |  |  | development of NASH (NASH-induced mice): ameliorates the development of NASH
